Like-named read-outs stand apart in the source and are kept apart here.
Key:
Assay type in all cases: biochemical
human Yes1 enzyme = target: T1, human Yes1 enzyme (Homo sapiens, UniProt P07947); assay: Yes1 enzyme inhibitory activity (time-resolved fluorometry, biotinylated peptide phosphorylation); details: read-out: YES_IC50
T1 construct: made in house
Outline: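 Inhibition was expressed against a compound-free control to give IC50, using TR-FRET read-out (Eu-cryptate anti-pTyr antibody, streptavidin-XL665).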

human Src enzyme = target: T2, human Src enzyme (Homo sapiens, UniProt P12931); assay: Src enzyme inhibitory activity (time-resolved fluorometry, biotinylated peptide phosphorylation); details: read-out: SRC_IC50
T2 construct: purchased Carna Biosciences, Inc. 08-173
T2 sequence (P12931 whole entry): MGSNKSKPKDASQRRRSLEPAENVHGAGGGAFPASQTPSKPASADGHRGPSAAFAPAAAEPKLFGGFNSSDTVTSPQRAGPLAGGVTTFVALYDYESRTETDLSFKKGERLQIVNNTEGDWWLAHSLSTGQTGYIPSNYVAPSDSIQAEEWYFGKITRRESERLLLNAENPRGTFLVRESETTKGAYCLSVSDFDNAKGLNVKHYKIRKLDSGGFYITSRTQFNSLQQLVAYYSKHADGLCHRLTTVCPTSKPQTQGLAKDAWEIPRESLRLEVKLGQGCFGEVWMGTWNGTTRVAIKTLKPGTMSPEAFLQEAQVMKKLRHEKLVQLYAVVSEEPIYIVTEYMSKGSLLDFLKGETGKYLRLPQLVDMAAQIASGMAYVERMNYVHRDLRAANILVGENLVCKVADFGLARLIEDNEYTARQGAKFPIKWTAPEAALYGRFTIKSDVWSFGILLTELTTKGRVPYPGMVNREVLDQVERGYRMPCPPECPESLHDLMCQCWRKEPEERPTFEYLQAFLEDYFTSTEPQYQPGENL
Outline: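 Compounds were tested for blocking tyrosine phosphorylation of a biotinylated peptide substrate by recombinant human Src. Phosphorylated product was quantified by time-resolved fluorometry using europium cryptate and XL665 conjugates, and IC50 was calculated against the compound-free control.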

human Lck enzyme = target: T3, human Lck enzyme (Homo sapiens, UniProt P06239); assay: Lck enzyme inhibitory activity (time-resolved fluorometry, biotinylated peptide phosphorylation); details: read-out: LCK_IC50
T3 construct: purchased Carna Biosciences, Inc. 08-170
T3 sequence (P06239 whole entry): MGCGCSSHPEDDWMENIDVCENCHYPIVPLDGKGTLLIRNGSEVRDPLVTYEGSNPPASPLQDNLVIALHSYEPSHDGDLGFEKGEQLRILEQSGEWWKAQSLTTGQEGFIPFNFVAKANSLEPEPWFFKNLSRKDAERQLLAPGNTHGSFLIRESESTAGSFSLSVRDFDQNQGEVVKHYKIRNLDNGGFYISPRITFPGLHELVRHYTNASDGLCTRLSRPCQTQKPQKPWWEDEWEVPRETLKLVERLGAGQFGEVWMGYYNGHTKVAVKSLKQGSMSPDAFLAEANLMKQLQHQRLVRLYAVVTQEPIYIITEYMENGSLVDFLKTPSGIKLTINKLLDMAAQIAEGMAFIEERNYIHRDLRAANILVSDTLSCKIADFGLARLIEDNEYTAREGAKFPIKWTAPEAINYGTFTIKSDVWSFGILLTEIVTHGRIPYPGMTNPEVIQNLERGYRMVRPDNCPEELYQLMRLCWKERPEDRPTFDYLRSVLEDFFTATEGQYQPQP
Outline: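 Readout pairs a europium cryptate-labelled anti-phosphotyrosine antibody with XL665-streptavidin, measured by time-resolved fluorescence. IC50 derived from percent inhibition against untreated controls.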

[1] = biotinylated peptide phosphorylation

T1 sequence (P07947 whole entry): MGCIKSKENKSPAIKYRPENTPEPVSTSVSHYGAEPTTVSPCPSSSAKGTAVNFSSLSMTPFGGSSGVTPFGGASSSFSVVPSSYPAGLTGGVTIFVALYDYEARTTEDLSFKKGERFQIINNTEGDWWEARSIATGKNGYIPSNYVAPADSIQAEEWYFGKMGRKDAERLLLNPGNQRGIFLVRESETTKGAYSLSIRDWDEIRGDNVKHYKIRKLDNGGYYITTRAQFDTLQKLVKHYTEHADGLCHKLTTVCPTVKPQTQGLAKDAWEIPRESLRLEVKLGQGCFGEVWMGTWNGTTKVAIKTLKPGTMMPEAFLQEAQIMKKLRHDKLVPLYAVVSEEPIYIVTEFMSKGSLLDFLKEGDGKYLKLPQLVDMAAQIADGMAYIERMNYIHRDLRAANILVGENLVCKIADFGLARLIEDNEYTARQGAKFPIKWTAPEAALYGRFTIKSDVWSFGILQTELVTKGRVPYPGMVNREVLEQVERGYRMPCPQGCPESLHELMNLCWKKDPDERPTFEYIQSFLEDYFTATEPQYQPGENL

| Compound | IC50 (human Yes1 enzyme) | IC50 (human Src enzyme) | IC50 (human Lck enzyme) | IC50 (human Yes1 enzyme; [1]) | IC50 (human Src enzyme; [1]) | IC50 (human Lck enzyme; [1]) |
| --- | --- | --- | --- | --- | --- | --- |
| Cc1cc(-n2ncc(C(=O)c3cc4cc(OC(F)F)c(N5C(=O)NC(C)(C)C5=O)cc4[nH]3)c2N)ccc1Oc1ccccc1F [Example 5-1-179, 3-[2-[5-amino-1-[4-(2-fluorophenoxy)-3-methylphenyl]pyrazole-4-carbonyl]-5-(difluoromethoxy)-1H-indol-6-yl]-5,5-dimethylimidazolidine-2,4-dione] | 4 nM | 810 nM | 180 nM |  |  |  |
| Cc1cc(Oc2ccccc2F)ncc1-n1ncc(C(=O)c2cc3cc(N4CCOCC4)c(NS(=O)(=O)N4CCOCC4)cc3[nH]2)c1N [Example 4-22-004, N-[2-[5-amino-1-[6-(2-fluorophenoxy)-4-methylpyridin-3-yl]pyrazole-4-carbonyl]-5-morpholin-4-yl-1H-indol-6-yl]morpholine-4-sulfonamide] |  |  |  | 1.2 nM | 360 nM | 78 nM |
| Cc1cc(Oc2cc(F)ccc2F)cc(F)c1-n1ncc(C(=O)c2cc3cc(Cl)c(NS(C)(=O)=O)cc3[nH]2)c1N [Example 4-2-081, N-[2-[5-amino-1-[4-(2,5-difluorophenoxy)-2-fluoro-6-methylphenyl]pyrazole-4-carbonyl]-5-chloro-1H-indol-6-yl]methanesulfonamide] |  |  |  | 14 nM | 210 nM | 83 nM |
| COc1cc2cc(C(=O)c3cnn(-c4cnc(Oc5ccccc5F)cc4C)c3N)[nH]c2cc1NS(=O)(=O)CC(=O)N1CCCC1 [Example 4-10-014, N-[2-[5-amino-1-[6-(2-fluorophenoxy)-4-methylpyridin-3-yl]pyrazole-4-carbonyl]-5-methoxy-1H-indol-6-yl]-2-oxo-2-pyrrolidin-1-ylethanesulfonamide] |  |  |  | 0.54 nM | 29 nM | 10 nM |
| Cc1cc(Oc2cc(F)ccc2F)cc(F)c1-n1ncc(C(=O)c2cc3cc(F)c(NS(C)(=O)=O)cc3[nH]2)c1N [Example 4-7-007, N-[2-[5-amino-1-[4-(2,5-difluorophenoxy)-2-fluoro-6-methylphenyl]pyrazole-4-carbonyl]-5-fluoro-1H-indol-6-yl]methanesulfonamide] |  |  |  | 2 nM | 190 nM | 41 nM |
| Cc1cc(Oc2ccccc2F)ccc1-n1ncc(C(=O)c2cc3cc(F)c(NS(=O)(=O)c4cccc(F)c4)cc3[nH]2)c1N [Example 5-1-552, N-[2-[5-amino-1-[4-(2-fluorophenoxy)-2-methylphenyl]pyrazole-4-carbonyl]-5-fluoro-1H-indol-6-yl]-3-fluorobenzenesulfonamide] |  |  |  | 5.4 nM | 830 nM | 130 nM |
| Cc1cc(Oc2c(F)cccc2F)ncc1-n1ncc(C(=O)c2cc3cc(F)c(NS(=O)(=O)c4cccc(Cl)n4)cc3[nH]2)c1N [Example 5-1-528, N-[2-[5-amino-1-[6-(2,6-difluorophenoxy)-4-methylpyridin-3-yl]pyrazole-4-carbonyl]-5-fluoro-1H-indol-6-yl]-6-chloropyridine-2-sulfonamide] |  |  |  | 8.8 nM | 750 nM | 230 nM |
| Cc1cc(Oc2c(F)cccc2F)ncc1-n1ncc(C(=O)c2cc3cc(OCC(F)F)c(N4CCN(S(C)(=O)=O)CC4)cc3[nH]2)c1N [Example 4-23-001, {5-amino-1-[6-(2,6-difluorophenoxy)-4-methylpyridin-3-yl]pyrazol-4-yl}-[5-(2,2-difluoroethoxy)-6-(4-methylsulfonylpiperazin-1-yl)-1H-indol-2-yl]methanone] |  |  |  | 1.3 nM | 16 nM | 8.2 nM |
| Cc1cc2cc(C(=O)c3cnn(-c4ccc(Oc5ccccc5F)cc4C)c3N)[nH]c2cc1N1C(=O)N[C@@H](CO)C1=O [Example 5-1-456, (5S)-3-[2-[5-amino-1-[4-(2-fluorophenoxy)-2-methylphenyl]pyrazole-4-carbonyl]-5-methyl-1H-indol-6-yl]-5-(hydroxymethyl)imidazolidine-2,4-dione] |  |  |  | 0.4 nM | 8.8 nM | 2.2 nM |
| COc1cc2cc(C(=O)c3cnn(-c4cnc(Oc5ccccc5F)cc4C)c3N)[nH]c2cc1N1CCCS1(=O)=O [Example 4-14-001, {5-amino-1-[6-(2-fluorophenoxy)-4-methylpyridin-3-yl]pyrazol-4-yl}-[6-(1,1-dioxo-1,2-thiazolidin-2-yl)-5-methoxy-1H-indol-2-yl]methanone] |  |  |  | 1.2 nM | 21 nM | 5.8 nM |
| Cc1cc(Oc2c(F)cccc2F)ncc1-n1ncc(C(=O)c2cc3cc(OCC(F)F)c(NS(=O)(=O)C4CCCCC4)cc3[nH]2)c1N [Example 5-1-315, N-[2-[5-amino-1-[6-(2,6-difluorophenoxy)-4-methylpyridin-3-yl]pyrazole-4-carbonyl]-5-(2,2-difluoroethoxy)-1H-indol-6-yl] cyclohexanesulfonamide] | 8.1 nM | 330 nM | 130 nM |  |  |  |
| Cc1cc(Oc2ccccc2F)ncc1-n1ncc(C(=O)c2cc3cc(NS(C)(=O)=O)c(Cl)cc3[nH]2)c1N [Example 4-2-096, N-[2-[5-amino-1-[6-(2-fluorophenoxy)-4-methylpyridin-3-yl]pyrazole-4-carbonyl]-6-chloro-1H-indol-5-yl]methanesulfonamide] |  |  |  | 0.38 nM | 9.5 nM | 2.6 nM |
| Cc1cc2cc(C(=O)c3cnn(-c4ccc(Oc5ncccc5Cl)cc4Cl)c3N)[nH]c2cc1N1CCCS1(=O)=O [Example 5-1-062, [5-amino-1-[2-chloro-4-(3-chloropyridin-2-yl)oxyphenyl]pyrazol-4-yl]-[6-(1,1-dioxo-1,2-thiazolidin-2-yl)-5-methyl-1H-indol-2-yl] methanone] | 2.4 nM | 48 nM | 13 nM |  |  |  |
| Cc1cc(Oc2ccccc2F)ncc1-n1ncc(C(=O)c2cc3cc(N(CCN4CCOCC4)S(C)(=O)=O)c(O)cc3[nH]2)c1N [Example 4-2-130] |  |  |  | 1.4 nM | 34 nM | 4.5 nM |
| Cc1cc(Oc2ccccc2F)cc(F)c1-n1ncc(C(=O)c2cc3cc(OC(F)F)c(NS(C)(=O)=O)cc3[nH]2)c1N [Example 5-1-076, N-[2-[5-amino-1-[2-fluoro-4-(2-fluorophenoxy)-6-methylphenyl]pyrazole-4-carbonyl]-5-(difluoromethoxy)-1H-indol-6-yl] methanesulfonamine] | 2.8 nM | 120 nM | 16 nM |  |  |  |
| CC(=O)N1CCC(c2cc3[nH]c(C(=O)c4cnn(-c5cnc(Oc6ccccc6F)cc5C)c4N)cc3cc2OC(F)F)CC1 [Example 4-17-008, 1-[4-[2-[5-amino-1-[6-(2-fluorophenoxy)-4-methylpyridin-3-yl]pyrazole-4-carbonyl]-5-(difluoromethoxy)-1H-indol-6-yl]piperidin-1-yl]ethanone] |  |  |  | 1.6 nM | 13 nM | 5.5 nM |
| Cc1cc(Oc2cccc(F)c2F)cc(F)c1-n1ncc(C(=O)c2cc3cc(F)c(NS(=O)(=O)N4CCOCC4)cc3[nH]2)c1N [Example 4-5-011, N-[2-[5-amino-1-[4-(2,3-difluorophenoxy)-2-fluoro-6-methylphenyl]pyrazole-4-carbonyl]-5-fluoro-1H-indol-6-yl]morpholine-4-sulfonamide] |  |  |  | 1.6 nM | 110 nM | 65 nM |
| Cc1cc(Oc2ccccc2F)ncc1-n1ncc(C(=O)c2cc3cc(OC(F)F)c(NC4CCN(S(C)(=O)=O)CC4)cc3[nH]2)c1N [Example 4-23-026, [5-amino-1-[6-(2-fluorophenoxy)-4-methylpyridin-3-yl]pyrazol-4-yl]-[5-(difluoromethoxy)-6-[(1-methylsulfonylpiperidin-4-yl)amino]-1H-indol-2-yl]methanone] |  |  |  | 4.5 nM | 50 nM | 19 nM |
| Cc1cc(-n2ncc(C(=O)c3cc4cc(OC5CCN(C6CCC6)CC5)c(NS(C)(=O)=O)cc4[nH]3)c2N)ccc1Oc1ccccc1F [Example 5-1-231, N-[2-[5-amino-1-[4-(2-fluorophenoxy)-3-methylphenyl]pyrazole-4-carbonyl]-5-(1-cyclobutylpiperidin-4-yl)oxy-1H-indol-6-yl] methanesulfonamide] | 1.7 nM | 610 nM | 72 nM |  |  |  |
| Cc1cc(Oc2ccccc2F)ccc1-n1ncc(C(=O)c2cc3cc(OCC(F)F)c(N4C(=O)OC[C@@H]4Cc4ccccc4)cc3[nH]2)c1N [Example 5-1-245, (4S)-3-[2-[5-amino-1-[4-(2-fluorophenoxy)-2-methylphenyl]pyrazole-4-carbonyl]-5-(2,2-difluoroethoxy)-1H-indol-6-yl]-4-benzyl-1,3-oxazolidin-2-one] | 7.1 nM | 23 nM | 57 nM |  |  |  |
| COc1cc2cc(C(=O)c3cnn(-c4c(C)cc(Oc5ccccc5F)cc4F)c3N)[nH]c2cc1NS(=O)(=O)CC(=O)N1CCOCC1 [Example 4-10-013, N-[2-[5-amino-1-[2-fluoro-4-(2-fluorophenoxy)-6-methylphenyl]pyrazole-4-carbonyl]-5-methoxy-1H-indol-6-yl]-2-morpholin-4-yl-2-oxoethanesulfonamide] |  |  |  | 1.2 nM | 29 nM | 11 nM |
| Cc1cc2cc(C(=O)c3cnn(-c4cnc(Oc5c(F)cccc5F)cc4C)c3N)[nH]c2cc1NS(=O)(=O)CC(=O)N1CCCC1 [Example 5-1-088, N-[2-[5-amino-1-[6-(2,6-difluorophenoxy)-4-methylpyridin-3-yl]pyrazole-4-carbonyl]-5-methyl-1H-indol-6-yl]-2-oxo-2-pyrrolidin-1-ylethanesulfonamide] | 2.2 nM | 27 nM | 2.8 nM |  |  |  |

— patent US10479780B2, “Aminopyrazole derivatives” (Chugai Seiyaku Kabushiki Kaisha, priority 2015, dated 2019)
